Assay results from patent US20090270442A1, “POLYMORPHS OF HYDROCHLORIDE SALT OF 5-(3-(ETHYLSULFONYL)PHENYL)-3,8-DIMETHYL-N-(1-METHYLPIPERIDIN-4-YL)-9H-PYRIDO[2,3-B]INDOLE-7-CARBOXAMIDE AND METHODS OF USE THEREFOR” (TAKEDA PHARMACEUTICAL COMPANY LIMITED, priority 2008, published 2009).

Assay: DI water slurry during the concurrent process control screen
Type: physicochemical
Details: several hours (2-24 hours)

CCS(=O)(=O)c1cccc(-c2cc(C(=O)NC3CCN(C)CC3)c(C)c3[nH]c4ncc(C)cc4c23)c1 [Form B]
form isolated after slurry in DI water: Form A was isolated
